Earlier results on one compound are cited in US20090054376A1, “BENZOFURAN DERIVATIVES WITH THERAPEUTIC ACTIVITIES” (Pharmos Corporation, priority 2005, published 2009).

For data set [1] the following is noted: 10 mg/kg i.v.; cited from earlier work.
Data set [2] has as its system pentobarbital-induced sleep. To be noted: 10 mg/kg i.v.; cited from earlier work.

Structures are written as SMILES.

`C=C(C)[C@@H]1CC[C@](C)(O)[C@H]2Oc3cc(CCCCC)cc(O)c3[C@@H]12` [CBE]: the “effect on body temperature of mice” value in data set [1] is recorded as “does not affect body temperature of mice”. In addition, the “prolongation of pentobarbital-induced sleep” value in data set [2] is listed as “nor does it prolong pentobarbital-induced sleep”.
